Experimental data: publication PMC10591915 (ACS chemical biology, 2023)
Where two headings read alike, the source gives them in different places.

Key:
[1] = system: albino mice; conditions: cited from earlier work
[2] = values as provided by PubChem; ref PubChem; cited from earlier work
[3] = biological target: T1, human CRBP1 (Homo sapiens, UniProt P09455); conditions: abn-CBD reference value; cited from earlier work
T1 sequence (P09455 1-135): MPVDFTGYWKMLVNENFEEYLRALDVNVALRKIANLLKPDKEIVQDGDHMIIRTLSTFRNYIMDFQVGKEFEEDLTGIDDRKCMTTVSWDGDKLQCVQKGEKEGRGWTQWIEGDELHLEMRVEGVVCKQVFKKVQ

[4] = biological target: T1, human CRBP1; assay: fluorescence atROL-replacement assay (Ki determination); assay type: binding

Row | SMILES | protection against light-induced retinal damage [1] | log P [2] | Ki [3] [µM] | Ki [4] [µM]
1 | C=C(C)[C@@H]1CCC(C)=C[C@H]1c1c(O)cc(O)cc1CCCCC [abn-CBD, 4-[(1R,6R)-3-Methyl-6-prop-1-en-2-ylcyclohex-2-en-1-yl]-5-pentylbenzene-1,3-diol] | protecting against this condition in albino mice | 6.5 | 0.067 | –
2 | Cc1ccc(C2(c3noc(CN(C)Cc4cccs4)n3)CCCC2)cc1 [inhibitor 1, N-methyl-N-[[3-[1-(4-methylphenyl)cyclopentyl]-1,2,4-oxadiazol-5-yl]methyl]-1-thiophen-2-ylmethanamine] | – | 4.9 | – | 9 ± 4.1
3 | CCN(CCn1cccn1)Cc1nc(C2(c3ccc(C)cc3)CCCC2)no1 [inhibitor 2, N-ethyl-N-[[3-[1-(4-methylphenyl)cyclopentyl]-1,2,4-oxadiazol-5-yl]methyl]-2-pyrazol-1-ylethanamine] | – | 4.0 | – | 7.1 ± 2.7
4 | COCC1CCN(Cc2nc(C(c3ccccc3)c3ccccc3)no2)CC1 [inhibitor 3, 3-benzhydryl-5-[[4-(methoxymethyl)piperidin-1-yl]methyl]-1,2,4-oxadiazole] | – | 4.0 | – | –
5 | COc1ccc(S(=O)(=O)N2CCC(O)(CO)CC2)c2c1CCCC2 [inhibitor 4, 4-(hydroxymethyl)-1-[(4-methoxy-5,6,7,8-tetrahydronaphthalen-1-yl)sulfonyl]piperidin-4-ol] | – | 1.4 | – | –
6 | CC(c1cccs1)N(C)Cc1nc(C(c2ccccc2)c2ccccc2)no1 (stereo not shown) [inhibitor 5, N-[(3-benzhydryl-1,2,4-oxadiazol-5-yl)methyl]-N-methyl-1-thiophen-2-ylethanamine] | – | 5.0 | – | 10.6 ± 2.5
7 | Cc1ccc(C2(c3noc(CN(C)Cc4cnn(C)c4)n3)CCCC2)cc1 [inhibitor 6, N-methyl-N-[[3-[1-(4-methylphenyl)cyclopentyl]-1,2,4-oxadiazol-5-yl]methyl]-1-(1-methylpyrazol-4-yl)methanamine] | – | 3.5 | – | 10.7 ± 4.5
